Measurements from ChEMBL document CHEMBL5113558, “Discovery of Potent PROTACs for the Potential Treatment of Leukemia” (ACS Med Chem Lett, 2022).

Molecular target: Protein cereblon/Tyrosine-protein kinase JAK2 (Homo sapiens, UniProt O60674+Q96SW2)
Assay: Protac activity at E3 ubiquitin ligase/JAK2 in human MHH-CALL-4 cells assessed as E3 ubiquitin ligase mediated JAK2 degradation incubated for 32 hrs by immunoblotting analysis
Format: cell-based, MHHCALL4

Sequence of Protein cereblon/Tyrosine-protein kinase JAK2 (O60674 whole entry): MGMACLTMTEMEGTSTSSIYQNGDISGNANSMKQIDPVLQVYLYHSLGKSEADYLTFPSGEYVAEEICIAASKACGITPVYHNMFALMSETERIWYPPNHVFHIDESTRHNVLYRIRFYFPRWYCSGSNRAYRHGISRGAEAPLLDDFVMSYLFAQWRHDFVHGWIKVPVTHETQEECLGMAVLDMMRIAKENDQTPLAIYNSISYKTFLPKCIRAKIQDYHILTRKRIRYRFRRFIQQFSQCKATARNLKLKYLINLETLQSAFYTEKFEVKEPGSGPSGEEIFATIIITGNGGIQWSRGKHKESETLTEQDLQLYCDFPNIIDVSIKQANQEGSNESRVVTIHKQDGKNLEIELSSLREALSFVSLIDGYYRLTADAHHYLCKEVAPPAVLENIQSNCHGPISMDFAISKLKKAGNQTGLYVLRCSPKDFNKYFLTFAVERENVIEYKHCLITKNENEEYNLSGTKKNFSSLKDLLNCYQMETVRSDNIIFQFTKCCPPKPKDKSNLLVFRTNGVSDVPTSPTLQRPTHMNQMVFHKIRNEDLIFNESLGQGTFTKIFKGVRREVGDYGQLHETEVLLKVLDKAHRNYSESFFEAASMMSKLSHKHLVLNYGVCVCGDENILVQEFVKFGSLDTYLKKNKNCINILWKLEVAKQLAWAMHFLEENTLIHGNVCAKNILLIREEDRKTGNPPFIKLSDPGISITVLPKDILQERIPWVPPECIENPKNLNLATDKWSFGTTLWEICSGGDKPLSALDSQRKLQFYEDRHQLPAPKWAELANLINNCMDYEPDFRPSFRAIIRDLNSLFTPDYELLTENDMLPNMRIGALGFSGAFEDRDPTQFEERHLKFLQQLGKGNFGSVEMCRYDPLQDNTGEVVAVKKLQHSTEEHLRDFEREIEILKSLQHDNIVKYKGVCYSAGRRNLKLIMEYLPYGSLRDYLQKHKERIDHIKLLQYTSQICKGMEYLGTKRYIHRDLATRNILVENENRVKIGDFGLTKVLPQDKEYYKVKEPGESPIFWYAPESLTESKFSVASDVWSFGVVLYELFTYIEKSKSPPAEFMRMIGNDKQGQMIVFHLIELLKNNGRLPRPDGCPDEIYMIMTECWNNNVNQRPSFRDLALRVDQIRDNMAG
Sequence of Protein cereblon/Tyrosine-protein kinase JAK2 (Q96SW2 whole entry): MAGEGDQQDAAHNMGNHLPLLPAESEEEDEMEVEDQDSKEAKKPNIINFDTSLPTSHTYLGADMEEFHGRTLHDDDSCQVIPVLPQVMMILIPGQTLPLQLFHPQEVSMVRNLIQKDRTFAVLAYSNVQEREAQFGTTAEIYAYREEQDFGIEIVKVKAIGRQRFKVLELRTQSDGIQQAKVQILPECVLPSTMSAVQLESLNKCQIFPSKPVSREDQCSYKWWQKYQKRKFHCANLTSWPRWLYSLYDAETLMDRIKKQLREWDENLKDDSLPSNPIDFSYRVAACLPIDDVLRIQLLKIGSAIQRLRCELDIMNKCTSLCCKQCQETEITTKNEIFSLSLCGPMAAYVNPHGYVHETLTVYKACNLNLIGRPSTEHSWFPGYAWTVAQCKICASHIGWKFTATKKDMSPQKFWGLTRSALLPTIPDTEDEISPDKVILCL

CCCn1cc(-c2nc(Nc3ccc(C(=O)NCCCCCc4cccc5c4CN(C4CCC(=O)NC4=O)C5=O)cc3)nc3[nH]ccc23)cn1 (stereo unspecified)
EC50: 0.5 nM
